In patent US7030242B2, “Selective inhibition of aggrecanase in osteoarthritis treatment” (Pfizer Inc, priority 1999, dated 2006) one finds IC50 data, which are given here for two molecules.

One experiment concerns the target T1, TACE (Homo sapiens, UniProt P78536).
T1 construct: Human mononuclear cells are isolated from anti-coagulated human blood; endogenous in cells; host or cells: human peripheral blood mononuclear cells, LPS stimulated
Put plainly: Inhibition of soluble TNF-α production (TACE whole blood assay). In kind it is cell-based. The following applies: Table 2, read-out: TACE (IC50 class). How it is done: Inhibition of Soluble TNF-α Production (TACE Whole Blood Assay)
This assay is used in the invention to measure the potency (IC50s) of compounds for TACE.
Human mononuclear cells are isolated from anti-coagulated human blood using a one-step Ficoll-hypaque separation technique. (2) The mononuclear cells are washed three times in Hanks balanced salt solution (HBSS) with divalent cations and re-suspended to a density of 2×10^6/ml in HBSS containing 1% BSA.
180 μL of the cell suspension was aliquoted into flat bottom 96 well plates (Costar). Additions of compounds and LPS (100 ng/ml final concentration) gives a final volume of 200 μL. All conditions are performed in triplicate. After about a four hour incubation at about 37° C. in an humidified CO2 incubator, plates are removed and centrifuged (about 10 minutes at approximately 250×g) and the supernatants removed and assayed for TNF-α using the R&D ELISA Kit.

The next experiment has as its system aggrecanase. Put plainly: Aggrecanase chondrocyte assay (35S-proteoglycan release, IL-1 stimulated). In kind it is cell-based, porcine. The following applies: Table 2; aggrecanase chondrocyte assay; read-out: Agg (aggrecanase IC50 class). How it is done: Aggrecanase Chondrocyte Assay
This assay is used in the invention to measure the potency (IC50s) of compounds for aggrecanase.
Primary porcine chondrocytes from articular joint cartilage are isolated by sequential trypsin and collagenase digestion followed by collagenase digestion overnight and are plated at 2×10^5 cells per well into 48 well plates with 5 μCi/ml ^35S (1000 Ci/mmol) sulphur in type I collagen coated plates. Cells are allowed to incorporate label into their proteoglycan matrix (approximately 1 week) at 37° C., under an atmosphere of 5% CO2.
The night before initiating the assay, chondrocyte monolayers are washed two times in DMEM/1% PSF/G and then allowed to incubate in fresh DMEM/1% FBS overnight.
The following morning chondrocytes are washed once in DMEM/1% PSF/G. The final wash is allowed to sit on the plates in the incubator while making dilutions. Media and dilutions can be made as described in the Table I below.
Plates are labeled and only the interior 24 wells of the plate are used. On one of the plates, several columns are designated as IL-1 (no drug) and Control (no IL-1, no drug). These control columns are periodically counted to monitor 35S-proteoglycan release. Control and IL-1 media are added to wells (450 μl) followed by compound (50 μl) so as to initiate the assay. Plates are incubated at 37° C., with a 5% CO2 atmosphere.
At 40–50% release (when CPM from IL-1 media is 4–5 times control media) as assessed by liquid scintillation counting (LSC) of media samples, the assay is terminated (about 9 to about 12 hours). Media is removed from all wells and placed in scintillation tubes. Scintillate is added and radioactive counts are acquired (LSC). To solubilize cell layers, 500 μL of papain digestion buffer (0.2 M Tris, pH 7.0, 5 mM EDTA, 5 mM DTT, and 1 mg/ml papain) is added to each well. Plates with digestion solution are incubated at 60° C. overnight. The cell layer is removed from the plates the next day and placed in scintillation tubes. Scintillate is then added, and samples counted (LSC).
The percent of released counts from the total present in each well is determined. Averages of the triplicates are made with control background subtracted from each well.

The target in experiment [1] is Human recombinant collagenase-3 (Homo sapiens, UniProt P45452). Put plainly: Inhibition of human collagenase-3 (recombinant collagenase-3 assay). The format is biochemical. The following applies: Table 2; recombinant collagenase-3 assay; read-out: MMP-13 (IC50 class). How it is done: Inhibition of Human Collagenase-3 (Recombinant Collagenase-3 Assay)
This assay is used in the invention to measure the potency (IC50s) of compounds for collagenase-3.
Human recombinant collagenase-3 is activated with 2 mM APMA (p-aminophenyl mercuric acetate) for about 2.0 hours, at about 37° C. and is diluted to about 240 ng/ml in assay buffer (50 mM Tris, pH 7.5, 200 mM sodium chloride, 5 mM calcium chloride, […], 0.02% BRIJ-35). Twenty-five micro-liters of diluted enzyme is added per well of a 96 well microfluor plate.
The final concentrations in the assay are 30 μM, 3 μM, 0.3 μM, and 0.03 μM.
Fluorescence readings (360 nm excitation; 450 nm emission) are taken at time 0 and about every 5 minutes for about 1 hour.
Positive controls and negative controls are set up in triplicate as outlined in the collagenase-1 assay. IC50's are determined as per inhibition of human collagenase (collagenase-1).

For experiment [2], the target named is T2, Human recombinant collagenase-1 (Homo sapiens, UniProt P03956).
T2 sequence (P03956 100-469): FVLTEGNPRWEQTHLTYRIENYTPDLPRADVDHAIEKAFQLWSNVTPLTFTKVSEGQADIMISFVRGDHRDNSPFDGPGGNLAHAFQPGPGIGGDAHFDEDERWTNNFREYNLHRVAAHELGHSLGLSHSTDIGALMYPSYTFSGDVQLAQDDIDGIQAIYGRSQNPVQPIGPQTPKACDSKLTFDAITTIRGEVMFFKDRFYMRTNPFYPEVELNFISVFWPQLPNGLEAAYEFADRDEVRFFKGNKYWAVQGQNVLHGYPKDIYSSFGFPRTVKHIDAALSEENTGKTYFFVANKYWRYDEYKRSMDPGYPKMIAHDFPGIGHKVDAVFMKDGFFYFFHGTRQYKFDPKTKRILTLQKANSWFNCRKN
As to the kind of experiment: Inhibition of human collagenase-1 (recombinant collagenase-1 assay). The format is biochemical. Conditions: Table 2, read-out: MMP-1 (IC50 class). How it is done:
Inhibition of Human Collagenase-1 (Recombinant Collagenase-1 Assay)
This assay is used in the invention to measure the potency (IC50s) of compounds for collagenase-1.
Human recombinant collagenase-1 is activated with trypsin. The amount of trypsin is optimized for each lot of collagenase-1, but a typical reaction uses the following ratio: 5 mg trypsin per 100 mg of collagenase.
Stock solutions (10 mM) of inhibitors are made up in dimethylsulfoxide and then diluted using the following scheme: • 10 mM------>120 μM------>12 μM------>1.2 μM------>0.12 μM
Twenty-five microliters of each concentration is then added in triplicate to appropriate wells of a 96 well microfluor plate. The final concentration of inhibitor will be a 1:4 dilution after addition of enzyme and substrate. Positive controls (enzyme, no inhibitor) are set up in wells D7–D12 and negative controls (no enzyme, no inhibitors) are set in wells D1–D6.
Collagenase-1 is diluted to 240 ng/ml and […] is then added to appropriate wells of the microfluor plate. Final concentration of collagenase in the assay is 60 ng/ml.
Substrate (DNP-Pro-Cha-Gly-Cys(Me)-His-Ala-Lys(NMA)-NH2) is made as a 5 mM stock in dimethylsulfoxide and then diluted to 20 μM in assay buffer. The assay is initiated by the addition of […] substrate per well of the microfluor plate to give a final concentration of 10 μM.
Fluorescence readings (360 nm excitation, 460 nm emission) are taken at time 0 and then at about 20 minute intervals. The assay is conducted at a temperature of about 20 to about 25° C., preferably about 23° C. with a typical assay time of about 3 hours.
Fluorescence versus time is then plotted for both the blank and collagenase containing samples (data from triplicate determinations is averaged). A time point that provides a good signal (at least five fold over the blank) and that is on a linear part of the curve (usually around 120 minutes) is chosen to determine IC50 values. The zero time is used as a blank for each compound at each concentration and these values are subtracted from the 120 minute data. Data is plotted as inhibitor concentration versus % control (inhibitor fluorescence divided by fluorescence of collagenase alone ×100).

T1 sequence (P78536 215-824): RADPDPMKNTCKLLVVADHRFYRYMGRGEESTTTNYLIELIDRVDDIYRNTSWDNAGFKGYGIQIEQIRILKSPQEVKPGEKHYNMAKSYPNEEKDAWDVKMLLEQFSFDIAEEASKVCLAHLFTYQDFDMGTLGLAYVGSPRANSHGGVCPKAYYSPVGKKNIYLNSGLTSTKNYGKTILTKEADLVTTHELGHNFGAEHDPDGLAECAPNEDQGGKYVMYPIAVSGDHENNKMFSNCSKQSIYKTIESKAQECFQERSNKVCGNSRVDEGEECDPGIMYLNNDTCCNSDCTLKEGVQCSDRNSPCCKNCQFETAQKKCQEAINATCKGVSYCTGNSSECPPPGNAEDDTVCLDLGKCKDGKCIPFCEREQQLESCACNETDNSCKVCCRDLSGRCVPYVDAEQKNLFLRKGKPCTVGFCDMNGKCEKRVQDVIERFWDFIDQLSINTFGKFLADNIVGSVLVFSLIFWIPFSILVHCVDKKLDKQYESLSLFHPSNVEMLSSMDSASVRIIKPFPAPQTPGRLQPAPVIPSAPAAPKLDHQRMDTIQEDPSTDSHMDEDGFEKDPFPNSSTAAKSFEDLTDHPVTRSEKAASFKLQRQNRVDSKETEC

As a reminder, the IC50 is the midpoint of a concentration-inhibition curve. Turning to `Cc1cc(F)ccc1COc1ccc(S(=O)(=O)N2CC(=O)N[C@@H](C)[C@@H]2C(=O)NO)cc1` [(2R,3S) 1-[4-(4-fluoro-2-methyl-benzyloxy)-benzenesulfonyl]-3-methyl-5-oxo-piperazine-2-carboxylic acidhydroxyamide], the IC50 is under 10000 nM on TACE, under 10 nM in the experiment on aggrecanase, 10 to 20 nM in experiment [1] and over 1000 nM in experiment [2].
Consider `Cc1cc(F)ccc1COc1ccc(S(=O)(=O)N2C[C@H](O)CC(C)(C)[C@@H]2C(=O)NO)cc1` [(2R,5R) 1-[4-(4-fluoro-2-methyl-benzyloxy)-benzenesulfonyl]-5-hydroxy-3,3-dimethyl-piperidine-2-carboxylic acidhydroxyamide], for which the IC50 on TACE is under 10000 nM; in the experiment with aggrecanase it was under 10 nM; in experiment [1], under 10 nM; in experiment [2], 200 to 1000 nM.
